From ChEMBL document CHEMBL1148257, “The significant effect of the carbohydrate structures on the DNA photocleavage of the quinoxaline-carbohydrate hybrids” (Bioorg Med Chem Lett, 2004)

How the values were obtained:
Nucleic Acid = test: Concentrations of compound at which 50% Form I DNA was converted into Form II DNA of Phi X 174; type: functional
HeLa [1] = test: Cytotoxicity of compound against HeLa S3 cells exposed to compound for 72 hr with 1 hr photoirradiation; conditions: Homo sapiens, light or radiation study
HeLa [2] = test: Cytotoxicity of compound against HeLa S3 cells without photoirradiation; type: functional, cell-based; conditions: Homo sapiens, light or radiation study

Structure (SMILES) | CC50 (Nucleic Acid) | IC50 (HeLa [1]) | IC50 (HeLa [2])
CC1O[C@H](OC2C(O)C[C@H](OCCOC(=O)c3cnc4ccccc4n3)OC2C)CC(N)C1O (some centres undefined) | 43 µM | 6 µM | > 100 µM
CC1O[C@H](OC2C(O)C[C@@H](OCCOC(=O)c3cnc4ccccc4n3)OC2C)CC(N)C1O (some centres undefined) | 160 µM |  | 
